Measured values published in ChEMBL document CHEMBL3885861, “Open TG-GATES”.

Organism: Rattus norvegicus
Assay: Open TG-GATES - Regimen: Daily Repeat
Assay type: toxicity, organism-based, Sprague-Dawley
Parameters: regimen Daily Repeat, gender Male, age 6 weeks
Settings: in vivo, po, 25 mg/kg, route gavage, dose level Middle; for APTT / Bas / Eos / Fbg / Hb / Ht / Lym / MCH / MCHC / MCV / Mono / Neu / PT / Plat / RBC / Ret / WBC: tissue Blood; for KIDNEY_L / KIDNEY_R / KIDNEY_TOTAL: tissue Kidney; for LIVER: tissue Liver; for A/G / ALP / ALT / AST / BUN / CRE / Ca / Cl / DBIL / GLC / IP / K / LDH / Na / PL / RALB / TBIL / TC / TG / TP / gamma-GTP: tissue Plasma

NC1=NC(=O)C(c2ccccc2)O1 (configuration not stated) [PEMOLINE]
TERMINAL_BW (72 h, time 3 day): 222.4 g | APTT (72 h, time 3 day): 16.7 s | Bas (72 h, time 3 day): 0% | Eos (72 h, time 3 day): 1% | Fbg (72 h, time 3 day): 288.4 mg/dL | Hb (72 h, time 3 day): 13.3 g/dL | Ht (72 h, time 3 day): 39% | Lym (72 h, time 3 day): 76.2% | MCH (72 h, time 3 day): 21.3 pg | MCHC (72 h, time 3 day): 33.9% | MCV (72 h, time 3 day): 62.6 fL | Mono (72 h, time 3 day): 3% | Neu (72 h, time 3 day): 19.4% | PT (72 h, time 3 day): 13 s | Plat (72 h, time 3 day): 109.7 x10_4/uL | RBC (72 h, time 3 day): 623.8 x10_4/ul | Ret (72 h, time 3 day): 6.1% | WBC (72 h, time 3 day): 79.9 x10_2/uL | KIDNEY_L (72 h, time 3 day): 1 g | KIDNEY_R (72 h, time 3 day): 0.9 g | KIDNEY_TOTAL (72 h, time 3 day): 1.9 g | LIVER (72 h, time 3 day): 9.9 g | A/G (72 h, time 3 day): 0.9 | ALP (72 h, time 3 day): 1654.8 IU/L | ALT (72 h, time 3 day): 41.8 IU/L | AST (72 h, time 3 day): 72.6 IU/L | BUN (72 h, time 3 day): 13.8 mg/dL | CRE (72 h, time 3 day): 0.2 mg/dL | Ca (72 h, time 3 day): 10.7 mg/dL | Cl (72 h, time 3 day): 105.8 meq/L | DBIL (72 h, time 3 day): 0.018 mg/dL | GLC (72 h, time 3 day): 177.4 mg/dL | IP (72 h, time 3 day): 7.5 mg/dL | K (72 h, time 3 day): 4.1 meq/L | LDH (72 h, time 3 day): 54.2 IU/L | Na (72 h, time 3 day): 142.2 meq/L | PL (72 h, time 3 day): 130.6 mg/dL | RALB (72 h, time 3 day): 2.6 g/dL | TBIL (72 h, time 3 day): 0.03 mg/dL | TC (72 h, time 3 day): 79.8 mg/dL | TG (72 h, time 3 day): 40 mg/dL | TP (72 h, time 3 day): 5.4 g/dL | gamma-GTP (72 h, time 3 day): 1 IU/L | TERMINAL_BW ([…], time 7 day): 260.2 g | TERMINAL_BW ([…], time 14 day): 319 g | TERMINAL_BW ([…], time 28 day): 384.9 g | APTT ([…], time 7 day): 15.8 s | Bas ([…], time 7 day): 0% | Eos ([…], time 7 day): 1% | Fbg ([…], time 7 day): 268.6 mg/dL | Hb ([…], time 7 day): 13.4 g/dL | Ht ([…], time 7 day): 39.5% | Lym ([…], time 7 day): 73.4% | MCH ([…], time 7 day): 20.9 pg | MCHC ([…], time 7 day): 34% | MCV ([…], time 7 day): 61.5 fL | Mono ([…], time 7 day): 3% | Neu ([…], time 7 day): 21.8% | PT ([…], time 7 day): 13.1 s | Plat ([…], time 7 day): 116 x10_4/uL | RBC ([…], time 7 day): 642.2 x10_4/ul | Ret ([…], time 7 day): 5.8% | WBC ([…], time 7 day): 107.7 x10_2/uL | APTT ([…], time 14 day): 16.6 s | Bas ([…], time 14 day): 0% | Eos ([…], time 14 day): 1% | Fbg ([…], time 14 day): 294.2 mg/dL | Hb ([…], time 14 day): 14.7 g/dL | Ht ([…], time 14 day): 42.4% | Lym ([…], time 14 day): 78.8% | MCH ([…], time 14 day): 21.3 pg | MCHC ([…], time 14 day): 34.7% | MCV ([…], time 14 day): 61.3 fL | Mono ([…], time 14 day): 2.6% | Neu ([…], time 14 day): 17.2% | PT ([…], time 14 day): 13.1 s | Plat ([…], time 14 day): 114.8 x10_4/uL | RBC ([…], time 14 day): 692.2 x10_4/ul | Ret ([…], time 14 day): 4.6% | WBC ([…], time 14 day): 86.6 x10_2/uL | APTT ([…], time 28 day): 17.9 s | Bas ([…], time 28 day): 0.6% | Eos ([…], time 28 day): 1% | Fbg ([…], time 28 day): 269 mg/dL | Hb ([…], time 28 day): 15.9 g/dL | Ht ([…], time 28 day): 44.1% | Lym ([…], time 28 day): 80% | MCH ([…], time 28 day): 20.6 pg | MCHC ([…], time 28 day): 36.1% | MCV ([…], time 28 day): 57.1 fL | Mono ([…], time 28 day): 2.4% | Neu ([…], time 28 day): 15.2% | PT ([…], time 28 day): 12.7 s | Plat ([…], time 28 day): 109.5 x10_4/uL | RBC ([…], time 28 day): 771.4 x10_4/ul | Ret ([…], time 28 day): 2.6% | WBC ([…], time 28 day): 116.8 x10_2/uL | KIDNEY_L ([…], time 7 day): 1.1 g | KIDNEY_R ([…], time 7 day): 1.1 g | KIDNEY_TOTAL ([…], time 7 day): 2.3 g | KIDNEY_L ([…], time 14 day): 1.3 g | KIDNEY_R ([…], time 14 day): 1.3 g | KIDNEY_TOTAL ([…], time 14 day): 2.5 g | KIDNEY_L ([…], time 28 day): 1.4 g | KIDNEY_R ([…], time 28 day): 1.3 g | KIDNEY_TOTAL ([…], time 28 day): 2.7 g | LIVER ([…], time 7 day): 11.6 g | LIVER ([…], time 14 day): 14 g | LIVER ([…], time 28 day): 14.4 g | A/G ([…], time 7 day): 0.9 | ALP ([…], time 7 day): 1546.6 IU/L | ALT ([…], time 7 day): 44.4 IU/L | AST ([…], time 7 day): 75.6 IU/L | BUN ([…], time 7 day): 15.6 mg/dL | CRE ([…], time 7 day): 0.2 mg/dL | Ca ([…], time 7 day): 10.4 mg/dL | Cl ([…], time 7 day): 104.4 meq/L | DBIL ([…], time 7 day): 0.016 mg/dL | GLC ([…], time 7 day): 179 mg/dL | IP ([…], time 7 day): 8 mg/dL | K ([…], time 7 day): 4.2 meq/L | LDH ([…], time 7 day): 75.6 IU/L | Na ([…], time 7 day): 142 meq/L | PL ([…], time 7 day): 141.6 mg/dL | RALB ([…], time 7 day): 2.5 g/dL | TBIL ([…], time 7 day): 0.024 mg/dL | TC ([…], time 7 day): 73.4 mg/dL | TG ([…], time 7 day): 117.8 mg/dL | TP ([…], time 7 day): 5.4 g/dL | gamma-GTP ([…], time 7 day): 1 IU/L | A/G ([…], time 14 day): 0.8 | ALP ([…], time 14 day): 1343.2 IU/L | ALT ([…], time 14 day): 46.6 IU/L | AST ([…], time 14 day): 72.2 IU/L | BUN ([…], time 14 day): 16.8 mg/dL | CRE ([…], time 14 day): 0.2 mg/dL | Ca ([…], time 14 day): 11.2 mg/dL | Cl ([…], time 14 day): 105.2 meq/L | DBIL ([…], time 14 day): 0.014 mg/dL | GLC ([…], time 14 day): 182.6 mg/dL | IP ([…], time 14 day): 8.7 mg/dL | K ([…], time 14 day): 4 meq/L | LDH ([…], time 14 day): 68.4 IU/L | Na ([…], time 14 day): 144.2 meq/L | PL ([…], time 14 day): 158.6 mg/dL | RALB ([…], time 14 day): 2.7 g/dL | TBIL ([…], time 14 day): 0.022 mg/dL | TC ([…], time 14 day): 83.6 mg/dL | TG ([…], time 14 day): 119.4 mg/dL | TP ([…], time 14 day): 6 g/dL | gamma-GTP ([…], time 14 day): 1 IU/L | A/G ([…], time 28 day): 0.8 | ALP ([…], time 28 day): 1018.2 IU/L | ALT ([…], time 28 day): 37.8 IU/L | AST ([…], time 28 day): 66.8 IU/L | BUN ([…], time 28 day): 16.6 mg/dL | CRE ([…], time 28 day): 0.2 mg/dL | Ca ([…], time 28 day): 11.2 mg/dL | Cl ([…], time 28 day): 105.2 meq/L | DBIL ([…], time 28 day): 0.016 mg/dL | GLC ([…], time 28 day): 179.4 mg/dL | IP ([…], time 28 day): 7.5 mg/dL | K ([…], time 28 day): 3.9 meq/L | LDH ([…], time 28 day): 76.8 IU/L | Na ([…], time 28 day): 143.4 meq/L | PL ([…], time 28 day): 134.4 mg/dL | RALB ([…], time 28 day): 2.7 g/dL | TBIL ([…], time 28 day): 0.03 mg/dL | TC ([…], time 28 day): 71.6 mg/dL | TG ([…], time 28 day): 134.8 mg/dL | TP ([…], time 28 day): 6.2 g/dL | gamma-GTP ([…], time 28 day): 1 IU/L
